Assay results reported in patent US8574563B2 (Bristol-Myers Squibb Company, priority 2006, dated 2013).
pEC50: −log10 of the molar value. Where two headings read alike, the source gives them in different places.

Tested on: HCV 1b-377-neo replicon cells
Experiment: HCV replicon assay, HCV 1b-377-neo replicon cells (1b FRET)
Assay type: cell-based, Hepatitis C virus genotype 1b
Settings: HCV 1b-377-neo replicon cells, HCV 1b genotype, read-out: EC50 range against HCV 1b (Table 2, Range)
How it was run: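 Compounds tested in HCV genotype 1b-377-neo replicon cells with a FRET read-out. Cells resistant to a reference NS5A inhibitor through a Y2065H NS5A mutation were run alongside wild-type cells.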

Structure (SMILES) | pEC50 (Hepatitis C virus) | pEC50
O=C([C@@H](c1ccccc1)N1CCCCC1)N1CC(F)(F)C[C@H]1c1nc(-c2ccc(-c3ccc(-c4cnc([C@@H]5CCCN5C(=O)[C@@H](c5ccccc5)N5CCCCC5)[nH]4)cc3)cc2)c[nH]1 [Example 24-10, 1-((R)-2-((2S)-2-(4-(4′-(2-((2S)-4,4-difluoro-1-((2R)-2-phenyl-2-(1-piperidinyl)acetyl)-2-pyrrolidinyl)-1H-imidazol-4-yl)-4-biphenylyl)-1H-imidazol-2-yl)-1-pyrrolidinyl)-2-oxo-1-phenylethyl)piperidine] | 9.00 to 12.00 | 
COC(=O)N[C@@H](C(=O)N1C[C@H](O)C[C@H]1c1nc(-c2ccc(-c3ccc(-c4c[nH]c([C@@H]5C[C@@H](O)CN5C(=O)[C@H](NC(=O)OC)c5ccccc5)n4)cc3)cc2)c[nH]1)c1ccccc1 [Example 24-11, dimethyl (4,4′-biphenyldiylbis(1H-imidazole-5,2-diyl((2S,4R)-4-hydroxy-2,1-pyrrolidinediyl)((1R)-2-oxo-1-phenyl-2,1-ethanediyl)))biscarbamate] | 7.00 to 9.00 | 
O=C([C@H](O)c1ccccc1)N1C[C@H](O)C[C@H]1c1ncc(-c2ccc(-c3ccc(-c4cnc([C@@H]5C[C@@H](O)CN5C(=O)[C@H](O)c5ccccc5)[nH]4)cc3)cc2)[nH]1 [Example 24-12, (3R,5S,3′R,5′S)-5,5′-(4,4′-biphenyldiylbis(1H-imidazole-5,2-diyl))bis(1-((2R)-2-hydroxy-2-phenylacetyl)-3-pyrrolidinol)] | 7.00 to 9.00 | 
CNC(=O)N[C@@H](C(=O)N1C[C@H](O)C[C@H]1c1ncc(-c2ccc(-c3ccc(-c4cnc([C@@H]5C[C@@H](O)CN5C(=O)[C@H](NC(=O)NC)c5ccccc5)[nH]4)cc3)cc2)[nH]1)c1ccccc1 [Example 24-13, N,N″-(4,4′-biphenyldiylbis(1H-imidazole-5,2-diyl((2S,4R)-4-hydroxy-2,1-pyrrolidinediyl)((1R)-2-oxo-1-phenyl-2,1-ethanediyl)))bis(3-methylurea)] | 6.00 to 7.00 | 
CCNC(=O)N[C@@H](C(=O)N1C[C@H](O)C[C@H]1c1ncc(-c2ccc(-c3ccc(-c4cnc([C@@H]5C[C@@H](O)CN5C(=O)[C@H](NC(=O)NCC)c5ccccc5)[nH]4)cc3)cc2)[nH]1)c1ccccc1 [Example 24-14, N′,N′′′-(4,4′-biphenyldiylbis(1H-imidazole-5,2-diyl((2S,4R)-4-hydroxy-2,1-pyrrolidinediyl)((1R)-2-oxo-1-phenyl-2,1-ethanediyl)))bis(1-ethylurea)] | 7.00 to 9.00 | 
O=C(NC1CCCC1)N[C@@H](C(=O)N1C[C@H](O)C[C@H]1c1ncc(-c2ccc(-c3ccc(-c4cnc([C@@H]5C[C@@H](O)CN5C(=O)[C@H](NC(=O)NC5CCCC5)c5ccccc5)[nH]4)cc3)cc2)[nH]1)c1ccccc1 [Example 24-15, N′,N′′′-(4,4′-biphenyldiylbis(1H-imidazole-5,2-diyl((2S,4R)-4-hydroxy-2,1-pyrrolidinediyl)((1R)-2-oxo-1-phenyl-2,1-ethanediyl)))bis(1-cyclopentylurea)] | 7.00 to 9.00 | 
CN(C)[C@@H](C(=O)N1C[C@@H](O)C[C@H]1c1ncc(-c2ccc(-c3ccc(-c4cnc([C@@H]5C[C@H](O)CN5C(=O)[C@@H](c5ccccc5)N(C)C)[nH]4)cc3)cc2)[nH]1)c1ccccc1 [Example 24-16, (3S,5S,3′S,5′S)-5,5′-(4,4′-biphenyldiylbis(1H-imidazole-5,2-diyl))bis(1-((2R)-2-(dimethylamino)-2-phenylacetyl)-3-pyrrolidinol)] | 9.00 to 12.00 | 
COC(=O)N[C@@H](C(=O)N1C[C@@H](O)C[C@H]1c1ncc(-c2ccc(-c3ccc(-c4cnc([C@@H]5C[C@H](O)CN5C(=O)[C@H](NC(=O)OC)c5ccccc5)[nH]4)cc3)cc2)[nH]1)c1ccccc1 [Example 24-17, dimethyl (4,4′-biphenyldiylbis(1H-imidazole-5,2-diyl((2S,4S)-4-hydroxy-2,1-pyrrolidinediyl)((1R)-2-oxo-1-phenyl-2,1-ethanediyl)))biscarbamate] | 9.00 to 12.00 | 
O=C([C@H](O)c1ccccc1)N1C[C@@H](O)C[C@H]1c1ncc(-c2ccc(-c3ccc(-c4cnc([C@@H]5C[C@H](O)CN5C(=O)[C@H](O)c5ccccc5)[nH]4)cc3)cc2)[nH]1 [Example 24-18, (3S,5S,3′S,5′S)-5,5′-(4,4′-biphenyldiylbis(1H-imidazole-5,2-diyl))bis(1-((2R)-2-hydroxy-2-phenylacetyl)-3-pyrrolidinol)] | 9.00 to 12.00 | 
COC(=O)N[C@@H](C(=O)N(C)[C@@H](C)c1ncc(-c2ccc(-c3ccc(-c4cnc([C@H](C)N(C)C(=O)[C@H](NC(=O)OC)c5ccccc5)[nH]4)cc3)cc2)[nH]1)c1ccccc1 [Example 24-18-1, dimethyl (4,4′-biphenyldiylbis(1H-imidazole-5,2-diyl(1S)-1,1-ethanediyl(methylimino)((1R)-2-oxo-1-phenyl-2,1-ethanediyl)))biscarbamate] | 9.00 to 12.00 | 
C[C@@H](c1ncc(-c2ccc(-c3ccc(-c4cnc([C@H](C)N(C)C(=O)[C@@H](c5ccccc5)N(C)C)[nH]4)cc3)cc2)[nH]1)N(C)C(=O)[C@@H](c1ccccc1)N(C)C [Example 24-18-2, (2R,2′R)-N,N′-(4,4′-biphenyldiylbis(1H-imidazole-5,2-diyl(1S)-1,1-ethanediyl))bis(2-(dimethylamino)N-methyl-2-phenylacetamide)] | 9.00 to 12.00 | 
C[C@@H](c1ncc(-c2ccc(-c3ccc(-c4cnc([C@H](C)N(C)C(=O)[C@@H](c5ccccc5)N5CCCCC5)[nH]4)cc3)cc2)[nH]1)N(C)C(=O)[C@@H](c1ccccc1)N1CCCCC1 [Example 24-18-3, (2R,2′R)-N,N′-(4,4′-biphenyldiylbis(1H-imidazole-5,2-diyl(1S)-1,1-ethanediyl))bis(N-methyl-2-phenyl-2-(1-piperidinyl)acetamide)] | 9.00 to 12.00 | 
COC(=O)N[C@@H](C(=O)N(C)[C@@H](C)c1ncc(-c2ccc(-c3ccc(-c4cnc([C@@H]5CCCN5C(=O)[C@H](NC(=O)OC)c5ccccc5)[nH]4)cc3)cc2)[nH]1)c1ccccc1 [Example 24-18-4, methyl ((1R)-2-((2S)-2-(5-(4′-(2-((1S)-1-(((2R)-2-((methoxycarbonyl)amino)-2-phenylacetyl)(methyl)amino)ethyl)-1H-imidazol-5-yl)-4-biphenylyl)-1H-imidazol-2-yl)-1-pyrrolidinyl)-2-oxo-1-phenylethyl)carbamate] | 9.00 to 12.00 | 
C[C@@H](c1ncc(-c2ccc(-c3ccc(-c4cnc([C@@H]5CCCN5C(=O)[C@@H](c5ccccc5)N(C)C)[nH]4)cc3)cc2)[nH]1)N(C)C(=O)[C@@H](c1ccccc1)N(C)C [Example 24-18-5, (2R)-2-(dimethylamino)-N-((1S)-1-(5-(4′-(2-((2S)-1-((2R)-2-(dimethylamino)-2-phenylacetyl)-2-pyrrolidinyl)-1H-imidazol-5-yl)-4-biphenylyl)-1H-imidazol-2-yl)ethyl)-N-methyl-2-phenylacetamide] | 9.00 to 12.00 | 
C[C@@H](c1ncc(-c2ccc(-c3ccc(-c4cnc([C@@H]5CCCN5C(=O)[C@@H](c5ccccc5)N5CCCCC5)[nH]4)cc3)cc2)[nH]1)N(C)C(=O)[C@@H](c1ccccc1)N1CCCCC1 [Example 24-18-6, (2R)-N-methyl-2-phenyl-N-((1S)-1-(5-(4′-(2-((2S)-1-((2R)-2-phenyl-2-(1-piperidinyl)acetyl)-2-pyrrolidinyl)-1H-imidazol-5-yl)-4-biphenylyl)-1H-imidazol-2-yl)ethyl)-2-(1-piperidinyl)acetamide] | 9.00 to 12.00 | 
COC(=O)N[C@H](C(=O)N1CCC[C@H]1c1ncc(-c2ccc(-c3ccc(-c4cnc([C@@H]5CCCN5C(=O)[C@@H](NC(=O)OC)C(C)C)[nH]4)cc3)cc2)[nH]1)C(C)C [Example 24-23] | 9.00 to 12.00 | 
CC(=O)N[C@@H](C(=O)N1CCC[C@H]1c1ncc(-c2ccc(-c3ccc(-c4cnc([C@@H]5CCCN5C(=O)[C@H](NC(C)=O)c5ccccc5)[nH]4)cc3)cc2)[nH]1)c1ccccc1 [Example 25, N,N′-(4,4′-biphenyldiylbis(1H-imidazole-5,2-diyl(2S)-2,1-pyrrolidinediyl((1R)-2-oxo-1-phenyl-2,1-ethanediyl)))diacetamide] | 9.00 to 12.00 | 
O=C(N[C@@H](C(=O)N1CCC[C@H]1c1ncc(-c2ccc(-c3ccc(-c4cnc([C@@H]5CCCN5C(=O)[C@H](NC(=O)[C@H]5CCCO5)c5ccccc5)[nH]4)cc3)cc2)[nH]1)c1ccccc1)[C@H]1CCCO1 [Example 25-1, (2R,2′R)-N,N′-(4,4′-biphenyldiylbis(1H-imidazole-5,2-diyl(2S)-2,1-pyrrolidinediyl((1R)-2-oxo-1-phenyl-2,1-ethanediyl)))ditetrahydro-2-furancarboxamide] |  | 9.00 to 12.00
Cn1cncc1C(=O)N[C@@H](C(=O)N1CCC[C@H]1c1ncc(-c2ccc(-c3ccc(-c4cnc([C@@H]5CCCN5C(=O)[C@H](NC(=O)c5cncn5C)c5ccccc5)[nH]4)cc3)cc2)[nH]1)c1ccccc1 [Example 25-2, N,N′-(4,4′-biphenyldiylbis(1H-imidazole-5,2-diyl(2S)-2,1-pyrrolidinediyl((1R)-2-oxo-1-phenyl-2,1-ethanediyl)))bis(1-methyl-1H-imidazole-5-carboxamide)] | 9.00 to 12.00 | 
CN1CCC[C@H]1C(=O)N[C@@H](C(=O)N1CCC[C@H]1c1ncc(-c2ccc(-c3ccc(-c4cnc([C@@H]5CCCN5C(=O)[C@H](NC(=O)[C@@H]5CCCN5C)c5ccccc5)[nH]4)cc3)cc2)[nH]1)c1ccccc1 [Example 25-3, (2S,2′S)-N,N′-(4,4′-biphenyldiylbis(1H-imidazole-5,2-diyl(2S)-2,1-pyrrolidinediyl((1R)-2-oxo-1-phenyl-2,1-ethanediyl)))bis(1-methyl-2-pyrrolidinecarboxamide)] | 9.00 to 12.00 | 
O=C(Cc1cccnc1)N[C@@H](C(=O)N1CCC[C@H]1c1ncc(-c2ccc(-c3ccc(-c4cnc([C@@H]5CCCN5C(=O)[C@H](NC(=O)Cc5cccnc5)c5ccccc5)[nH]4)cc3)cc2)[nH]1)c1ccccc1 [Example 25-4, N,N′-(4,4′-biphenyldiylbis(1H-imidazole-5,2-diyl(2S)-2,1-pyrrolidinediyl((1R)-2-oxo-1-phenyl-2,1-ethanediyl)))bis(2-(3-pyridinyl)acetamide)] | 9.00 to 12.00 | 
